{"source": "patent US9060950B2", "about": "“Emetic embedded capsule” (Paul H. Rosenberg, Proximate Concepts, LLC., priority 2005, dated 2015)", "origin": "cited, not measured here", "key": {"[1]": {"assay": "not given", "remark": "listed apart in the source"}}, "note": "Counter-ions that a name gives are not always drawn.", "data": [{"smiles": "Cc1nnc2n1-c1ccc(Cl)cc1C(c1ccccc1Cl)=NC2", "note": "[Triazolm]", "values": [{"measurement": "amount ingested after which manifestations of overdose may occur", "setting": "ingestion", "result": 2, "unit": "mg"}]}, {"smiles": "O.O.O.O.O.O.O.O=S(=O)([O-])[O-].[Zn+2]", "note": "[Zinc sulfate heptahydrate]", "values": [{"measurement": "amount ingested that causes emesis", "setting": "[1]", "result": 0.6, "unit": "grams"}]}, {"smiles": "CNCCC(Oc1ccc(C(F)(F)F)cc1)c1ccccc1", "note": "(centres unmarked) [fluoxetine hydrochloride, Fluoxetine hydrochloride]", "values": [{"measurement": "ingested amount reported to have caused death", "setting": "ingestion", "result": 520, "unit": "mg"}]}, {"smiles": "CC(=O)Nc1ccc(O)cc1", "note": "[acetaminophen, Acetaminophen]", "values": [{"measurement": "amount ingested following which hepatic toxicity may occur", "setting": "in vivo", "result": 7.5, "unit": "grams"}, {"measurement": "amount ingested following which fatalities may occur", "setting": "ingestion", "result": 15, "unit": "grams"}]}]}
